How the values were obtained:
Type in all cases: in vivo
[1] = tested on: AMBROSIA ARTEMISIIFOLIA, L.; test: Preemergence herbicidal evaluation, AMBEL (Ragweed, Common)
Outline: (§1)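 First, seeds in potting soil are sown atop soil in cups. Next, the surface is sprayed with test compound in aqueous acetone at roughly 0.125 to 0.50 kg per hectare. After four to five weeks of greenhouse care, each cup is scored 0-9 against a control.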

SAGITTARIA PYGMAEA = test: Preemergence evaluation in the presence of transplanted rice under flooded paddy conditions (Example 43), SAGPY (Arrowhead (Pygmaea)); parameters: key: visual rating on a 0-9 scale, compared with control; details: applied three days after sowing, 25 to 30 days after treatment
Experimental: (§2) Results of herbicide evaluation are expressed on a rating scale (0-9). The scale is based upon a visual observation of plant stand, vigor, malformation, size, chlorosis and overall plant appearance as compared with a control.
(§3) In this example, Deluvian paddy soil (Toyokawa paddy soil) is placed in plastic pots, 100cm^2 x 9 cm in depth. Water is added to the level of the soil surface in the pot and the mixture is paddled 3 cm in depth.
(§4) Pots are then variously sown with monocotyledenous weed seeds and tubers at 0-2 cm in soil depth, as well as transplanted rice plants at the 2.5 leaf stage. The rice plants are transplanted at about 3 cm soil depth. Water is then added to all of the pots to 3 cm deep and kept at a depth of 3 cm for the duration of the test. Test compounds are applied in the manner described in Example 42 three days after transplanting the rice plants and sowing the weed seeds and tubers. The pots are then placed on greenhouse benches and cared for in the conventional manner. Tests are examined at 25 to 30 days after treatment and rated according to the rating system provided in Example 40. The compounds evaluated are reported by compound number given in Example 40.

SCIRPUS JUNCOIDES = test: Preemergence evaluation in the presence of transplanted rice under flooded paddy conditions (Example 43), SCPJU (Bulrush, Japanese); parameters: key: visual rating on a 0-9 scale, compared with control; details: applied three days after sowing, 25 to 30 days after treatment
Experimental: as §2, §3, §4

CYPERUS DIFFORMIS = test: Preemergence evaluation in the presence of transplanted rice under flooded paddy conditions (Example 43), CYPDI (Flatsedge, smallflower); parameters: key: visual rating on a 0-9 scale, compared with control; details: applied three days after sowing, 25 to 30 days after treatment
Experimental: as §2, §3, §4

ECHINOCHLOA CRUS-GALLI = test: Preemergence evaluation in the presence of transplanted rice under flooded paddy conditions (Example 43), ECHCG (Barnyard Grass); parameters: key: visual rating on a 0-9 scale, compared with control; details: applied three days after sowing, 25 to 30 days after treatment
Experimental: as §2, §3, §4

[2] = tested on: ORYZA SATIVA, L. CV. KOSHIHIKARI; test: Post-transplant rice evaluation under flooded paddy conditions (Example 43), ORYSAK (Rice, Koshihikari); parameters: key: visual rating on a 0-9 scale, compared with control; details: applied three days after transplanting rice, 25 to 30 days after treatment
Experimental: as §2, §3, §4

[…] = Preemergence evaluation in the presence of transplanted rice under flooded paddy conditions (Example 43), MOOVA (Monochoria); details: applied three days after sowing, 25 to 30 days after treatment
Experimental: as §2, §3, §4

[3] = tested on: ABUTILON THEOPHRASTI, MEDIC.; test: Preemergence herbicidal evaluation, ABUTH (Velvetleaf); details: four to five weeks after treatment
Outline: as §1

[4] = tested on: ECHINOCHLOA CRUS-GALLI, (L) BEAU; test: Preemergence herbicidal evaluation, ECHCG (Barnyardgrass); details: four to five weeks after treatment
Outline: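 Barnyardgrass seeds were mixed with potting soil and planted on about one inch of soil in pint cups for preemergence testing. Treated cups were kept on greenhouse benches, watered and maintained by standard greenhouse practice. After four to five weeks, each cup was visually rated on a 0-9 scale against an untreated control.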

[5] = tested on: TRITICUM AESTIVUM, CV. APOLLO; test: Preemergence herbicidal evaluation, TRZAWO (Wheat, Winter, CV. APOLLO); details: four to five weeks after treatment
Outline: as §1

Row | SMILES | Herbicidal effect rating, SAGPY (SAGITTARIA PYGMAEA; 0.032 kg/ha) | Herbicidal effect rating, SAGPY (SAGITTARIA PYGMAEA; 0.063 kg/ha) | Herbicidal effect rating, SAGPY (SAGITTARIA PYGMAEA; 0.125 kg/ha) | Herbicidal effect rating, SAGPY (SAGITTARIA PYGMAEA; 0.250 kg/ha) | Herbicidal effect rating, SCPJU (SCIRPUS JUNCOIDES; 0.032 kg/ha) | Herbicidal effect rating, SCPJU (SCIRPUS JUNCOIDES; 0.063 kg/ha) | Herbicidal effect rating, SCPJU (SCIRPUS JUNCOIDES; 0.125 kg/ha) | Herbicidal effect rating, SCPJU (SCIRPUS JUNCOIDES; 0.250 kg/ha) | Herbicidal effect rating, CYPDI (CYPERUS DIFFORMIS; 0.032 kg/ha) | Herbicidal effect rating, CYPDI (CYPERUS DIFFORMIS; 0.063 kg/ha) | Herbicidal effect rating, CYPDI (CYPERUS DIFFORMIS; 0.125 kg/ha) | Herbicidal effect rating, CYPDI (CYPERUS DIFFORMIS; 0.250 kg/ha) | Herbicidal effect rating, ECHCG (ECHINOCHLOA CRUS-GALLI; 0.032 kg/ha) | Herbicidal effect rating, ECHCG (ECHINOCHLOA CRUS-GALLI; 0.063 kg/ha) | Herbicidal effect rating, ECHCG (ECHINOCHLOA CRUS-GALLI; 0.125 kg/ha) | Herbicidal effect rating, ECHCG (ECHINOCHLOA CRUS-GALLI; 0.250 kg/ha) | Herbicidal effect rating, ORYSAK ([2]; 0.032 kg/ha) | Herbicidal effect rating, ORYSAK ([2]; 0.063 kg/ha) | Herbicidal effect rating, ORYSAK ([2]; 0.125 kg/ha) | Herbicidal effect rating, ORYSAK ([2]; 0.250 kg/ha) | other results
1 | Cn1c(=O)[nH]c(=O)n(-c2cc(Oc3c(F)cc(C(F)(F)F)cc3Cl)ccc2F)c1=O [C, reference compound] | – | – | – | – | – | – | – | – | – | – | – | – | – | – | – | – | – | – | – | – | AMBEL ([1]; Rate 0.031 kg/ha): 0.0; AMBEL ([1]; Rate 0.063 kg/ha): 0.0; AMBEL ([1]; Rate 0.125 kg/ha): 0.0; AMBEL ([1]; Rate 0.250 kg/ha): 0.0
2 | COC(=O)Cn1c(=O)n(C)c(=O)n(-c2cc(Oc3c(F)cc(C(F)(F)F)cc3Cl)ccc2F)c1=O [Compound 4, Methyl 3-{5-[(2-chloro-α,α,α,6-tetrafluoro-p-tolyl)oxy]-2-fluorophenyl}tetrahydro-5-methyl-2,4,6-trioxo-s-triazine-1(2H)-acetate] | 0.0 | 2.0 | 6.0 | 9.0 | 7.0 | 9.0 | 9.0 | 9.0 | 9.0 | 9.0 | 9.0 | 9.0 | 9.0 | 9.0 | 9.0 | 9.0 | 1.0 | 4.0 | 7.0 | 9.0 | Herbicidal effect rating, MOOVA ([…]; 0.032 kg/ha): 9.0; Herbicidal effect rating, MOOVA ([…]; 0.063 kg/ha): 9.0; Herbicidal effect rating, MOOVA ([…]; 0.125 kg/ha): 9.0; Herbicidal effect rating, MOOVA ([…]; 0.250 kg/ha): 9.0
3 | COC(=O)Cn1c(=O)[nH]c(=O)n(-c2cc(Oc3ccc(C(F)(F)F)cc3Cl)ccc2[N+](=O)[O-])c1=O [Compound 8, Methyl 3-{5-[(2-chloro-α,α,α-trifluoro-p-tolyl)oxy]-2-nitrophenyl}tetrahydro-2,4,6-trioxo-s-triazine-1(2H)-acetate] | 1.0 | 3.0 | 6.0 | 8.0 | 1.0 | 5.0 | 7.0 | 8.0 | 7.0 | 9.0 | 9.0 | 9.0 | 8.0 | 8.0 | 9.0 | 9.0 | 2.0 | 3.0 | 2.0 | 6.0 | ABUTH rating ([3]; Rate 0.125 kg/ha): 9.0; ABUTH rating ([3]; Rate 0.250 kg/ha): 9.0; ABUTH rating ([3]; Rate 0.500 kg/ha): 9.0; ECHCG rating ([4]; Rate 0.125 kg/ha): 0.0; ECHCG rating ([4]; Rate 0.250 kg/ha): 0.0; ECHCG rating ([4]; Rate 0.500 kg/ha): 0.0; TRZAWO rating ([5]; Rate 0.125 kg/ha): 3.0; TRZAWO rating ([5]; Rate 0.250 kg/ha): 3.0; TRZAWO rating ([5]; Rate 0.500 kg/ha): 3.0; Herbicidal effect rating, MOOVA ([…]; 0.032 kg/ha): 7.0; Herbicidal effect rating, MOOVA ([…]; 0.063 kg/ha): 9.0; Herbicidal effect rating, MOOVA ([…]; 0.125 kg/ha): 9.0; Herbicidal effect rating, MOOVA ([…]; 0.250 kg/ha): 9.0

Reference: EP0745595A1, “3-(3-Aryloxyphenyl)-1-(substituted methyl)-s-triazine-2,4,6-oxo or thiotrione herbicidal agents” (American Cyanamid Company, priority 1995, dated 1996)
